The source of these data is patent publication US10202377B2, “3-(1H-benzo[D]imidazol-2-yl)-1H-pyrazolo[3,4-C]pyridine and therapeutic uses thereof” (Samumed, LLC, priority 2014, dated 2019).

Assay [1] has as its system primary human mesenchymal stem cells (hMSCs). Description: Chondrogenesis induction in primary human mesenchymal stem cells (nodule imaging, Rhodamine B/Nile Red). In kind it is cell-based. The note with it: 6 days, dose at which the compound reached maximum chondrogenesis activity, dose range 10-2700 nM. The protocol: The above synthesized compounds were screened using primary human mesenchymal stem cells (hMSCs) to determine their ability to induce chondrogenesis (process by which cartilage is developed).
Human Mesenchymal Stem Cell Culture: Primary human mesenchymal stem cells (hMSCs) were purchased from Lonza (Walkersville, Md.) and expanded in Mesenchymal Stem Cell Growth Media (Lonza). Cells between passage 3 and 6 were used for the experiments.
Compound Screening: Each compound was dissolved in DMSO as a 10 mM stock and used to prepare compound source plates. Serial dilution (1:3, 6-point dose-response curves from 2700 nM to 10 nM) and compound transfer was performed using the ECHO 550 (Labcyte, Sunnyvale, Calif.) into 96-well clear bottom assay plates (Greiner Bio-One) with appropriate DMSO backfill for a final DMSO concentration of 0.03%. hMSCs were plated at 20,000 cells/well in 250 μL/well Incomplete Chondrogenic Induction Medium (Lonza; DMEM, dexamethasone, ascorbate, insulin-transferrin-selenium [ITS supplement], gentamycin-amphotericin [GA-1000], sodium pyruvate, proline and L-glutamine). TGF-β3 (10 ng/mL) was used as a positive control for differentiation while negative control wells were treated with 75 nL DMSO for normalization and calculating EC50 values. Cells were incubated at 37° C. and 5% CO2 for 6 days. To image chondrogenic nodules, the cells were fixed using 4% formaldehyde (Electron Microscopy Sciences), and stained with 2 μg/mL Rhodamine B (Sigma-Aldrich) and 20 μM Nile Red (Sigma-Aldrich) [Johnson K., et. al, A Stem Cell-Based Approach to Cartilage Repair, Science, (2012), 336(6082), 717-721]. The nodules imaged (4 images per well at 4× magnification) by excitation at 531 nm and emission at 625 nm and quantified using the CellInsight CX5 (Thermo Scientific). Number of nodules in each well was normalized to the average of 3 DMSO treated wells on the same plate using Excel (Microsoft Inc.). The normalized averages (fold change over DMSO) of 3 replicate wells for each compound concentration were calculated. Due to solubility limitations of some of the compounds, curve fitting was incomplete leading to inaccurate EC50 determinations.
Using TGF-β3 as a positive control, the concentration of test compounds required to induce equivalent levels of chondrogenesis is reported. In addition, the maximum activity of each compound and the respective dose that each compound reached maximum chondrogenesis activity is reported.

The subject of assay [2] is primary human fibroblasts derived from IPF patients (LL29 cells). The experiment in a line: Inhibition of fibrosis (αSMA staining) in TGF-β1-treated primary human fibroblasts from IPF patients. In kind it is cell-based. To be noted: Fibroblast, 96 h, TGF-β1 20 ng/mL, 4 days. In short, it runs like this:
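LL29 IPF fibroblasts in F12 with 1% FBS were stimulated with TGF-β1 (20 ng/mL) and incubated 4 days at 37 °C. SYTOX-positive dead cells were excluded, and αSMA-positive cells were counted by immunostaining as % of total. Values were normalized to TGF-β1/DMSO wells on the same plate, and EC50 derived.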

Assay [3] deals with Wnt activity (Sp5-Luc reporter, SW480 colon carcinoma cells). The experiment in a line: Sp5-Luc Wnt reporter gene screening assay in SW480 colon carcinoma cells. The note with it: Homo sapiens. A general note: A reporter such as luciferase makes a cellular process visible.

Structures are written as SMILES.

Broadly, the EC50 is the concentration needed to bring the measured effect to its halfway point. The IC50 is the concentration needed to halve the response being measured. The low end stands for greater potency in that assay, the high end for weaker potency in that assay. Regarding `CN(C)Cc1cncc(-c2cc3c(-c4nc5c(-c6cccc(F)c6)cccc5[nH]4)n[nH]c3cn2)c1` [Compound 13, 1-(5-(3-(4-(3-Fluorophenyl)-1H-benzo[d]imidazol-2-yl)-1H-pyrazolo[3,4-c]pyridin-5-yl)pyridin-3-yl)-N,N-dimethylmethanamine], the “Conc (nM) of Max. activity” value in assay [1] was 300 nM. For the same molecule, in assay [2], the EC50 amounted to 9 nM. The molecule also yielded an IC50 in assay [3] of 19.1 nM.
Take `CC(C)(C)C(=O)Nc1cncc(-c2cc3c(-c4nc5c(-c6ccc(F)cc6)cccc5[nH]4)n[nH]c3cn2)c1` [Compound 34, N-(5-(3-(4-(4-Fluorophenyl)-1H-benzo[d]imidazol-2-yl)-1H-pyrazolo[3,4-c]pyridin-5-yl)pyridin-3-yl)pivalamide]: in assay [1], the “Conc (nM) of Max. activity” value turned out to be 2700 nM. Also, in assay [2], the EC50 was 47 nM. Further, in assay [3], the IC50 came out at 31.2 nM.
In the case of `Nc1cncc(-c2cc3c(-c4nc5c(-c6ccccc6F)cccc5[nH]4)n[nH]c3cn2)c1` [Compound 55, 5-(3-(4-(2-Fluorophenyl)-1H-benzo[d]imidazol-2-yl)-1H-pyrazolo[3,4-c]pyridin-5-yl)pyridin-3-amine], the “Conc (nM) of Max. activity” value in assay [1] is given as 900 nM. The molecule also returned an EC50 in assay [2] of 9 nM. In assay [3], this molecule gave an IC50 of 19.5 nM.
The corresponding values for `c1cncc(-c2cc3c(-c4nc5c(-c6cccnc6)cccc5[nH]4)n[nH]c3cn2)c1` [Compound 82, 5-(Pyridin-3-yl)-3-(4-(pyridin-3-yl)-1H-benzo[d]imidazol-2-yl)-1H-pyrazolo[3,4-c]pyridine] are 30 nM, 9 nM and 4.5 nM.
Take `CN(C)Cc1cncc(-c2cc3c(-c4nc5c(N6CCCCC6)cccc5[nH]4)n[nH]c3cn2)c1` [Compound 169, N,N-dimethyl-1-(5-(3-(4-(piperidin-1-yl)-1H-benzo[d]imidazol-2-yl)-1H-pyrazolo[3,4-c]pyridin-5-yl)pyridin-3-yl)methanamine]: the “Conc (nM) of Max. activity” value in assay [1] is given as 900 nM. This molecule returned an EC50 in assay [2] of 9 nM. The molecule further registered an IC50 in assay [3] of 28.3 nM.
Take `Cc1cn(-c2cccc3[nH]c(-c4n[nH]c5cnc(-c6cncc(NC(=O)CC(C)C)c6)cc45)nc23)cn1` [Compound 184, 3-Methyl-N-(5-(3-(4-(4-methyl-1H-imidazol-1-yl)-1H-benzo[d]imidazol-2-yl)-1H-pyrazolo[3,4-c]pyridin-5-yl)pyridin-3-yl)butanamide]: the “Conc (nM) of Max. activity” value in assay [1] is 30 nM. The EC50 in assay [2] was 277 nM. In assay [3], it took 55.1 nM to reach half-maximal inhibition (IC50).
In the case of `CN1CCN(c2cccc3[nH]c(-c4n[nH]c5cnc(-c6cncc(N)c6)cc45)nc23)CC1` [Compound 211, 5-(3-(4-(4-Methylpiperazin-1-yl)-1H-benzo[d]imidazol-2-yl)-1H-pyrazolo[3,4-c]pyridin-5-yl)pyridin-3-amine], the “Conc (nM) of Max. activity” value in assay [1] worked out at 2700 nM. In assay [2], this molecule registered an EC50 of 613 nM. Moreover, the IC50 in assay [3] was 96.8 nM.
With `c1cncc(-c2cc3c(-c4nc5ccccc5[nH]4)n[nH]c3cn2)c1` [Compound 238, 3-(1H-Benzo[d]imidazol-2-yl)-5-(pyridin-3-yl)-1H-pyrazolo[3,4-c]pyridine], in assay [1], the “Conc (nM) of Max. activity” value came out at 100 nM. For the same molecule, a half-maximal response in assay [2] (EC50) required 57 nM. Also, the IC50 in assay [3] was determined as 7.7 nM.
Consider `CC(C)C(=O)Nc1cncc(-c2cc3c(-c4nc5c(-c6ccsc6)cccc5[nH]4)n[nH]c3cn2)c1` [Compound 269, N-(5-(3-(4-(Thiophen-3-yl)-1H-benzo[d]imidazol-2-yl)-1H-pyrazolo[3,4-c]pyridin-5-yl)pyridin-3-yl)isobutyramide], for which the “Conc (nM) of Max. activity” value in assay [1] is 900 nM. Further, it took 49 nM to reach a half-maximal effect in assay [2] (EC50). The molecule also came in with an IC50 in assay [3] of 4.2 nM.
Turning to `CC(C)CC(=O)Nc1cncc(-c2cc3c(-c4nc5c(-c6ccoc6)cccc5[nH]4)n[nH]c3cn2)c1` [Compound 288, N-(5-(3-(4-(Furan-3-yl)-1H-benzo[d]imidazol-2-yl)-1H-pyrazolo[3,4-c]pyridin-5-yl)pyridin-3-yl)-3-methylbutanamide], in assay [1], the “Conc (nM) of Max. activity” value amounted to 10 nM. Besides, the EC50 in assay [2] is 9 nM. Further, the IC50 in assay [3] is 6.8 nM.
With `O=C(Nc1cncc(-c2cc3c(-c4nc5c(-c6cccs6)cccc5[nH]4)n[nH]c3cn2)c1)C1CC1` [Compound 331, N-(5-(3-(4-(Thiophen-2-yl)-1H-benzo[d]imidazol-2-yl)-1H-pyrazolo[3,4-c]pyridin-5-yl)pyridin-3-yl)cyclopropanecarboxamide], the “Conc (nM) of Max. activity” value in assay [1] is 300 nM. The molecule also displayed an EC50 in assay [2] of 29 nM. Further, the IC50 in assay [3] came out at 17.2 nM.
`CN(C)CCNc1cc(F)cc(-c2cccc3[nH]c(-c4n[nH]c5cnc(-c6cncc(CNCC7CCCC7)c6)cc45)nc23)c1` [Compound 466, N^1-(3-(2-(5-(5-(((Cyclopentylmethyl)amino)methyl)pyridin-3-yl)-1H-pyrazolo[3,4-c]pyridin-3-yl)-1H-benzo[d]imidazol-4-yl)-5-fluorophenyl)-N^2,N^2-dimethylethane-1,2-diamine] had an EC50 in assay [2] of 308 nM. For the same molecule, the IC50 in assay [3] is 466 nM.
As for `Fc1cccc(-c2cccc3[nH]c(-c4n[nH]c5cnc(C6CCNCC6)cc45)nc23)c1` [Compound 937, 3-(4-(3-Fluorophenyl)-1H-benzo[d]imidazol-2-yl)-5-(piperidin-4-yl)-1H-pyrazolo[3,4-c]pyridine], the EC50 in assay [2] stood at 9990 nM. In addition, 3160 nM corresponded to half-maximal inhibition in assay [3] (IC50).
The corresponding values for `CN(C)CCOc1cncc(-c2cc3c(-c4nc5c(-c6cccc(F)c6)cccc5[nH]4)n[nH]c3cn2)c1` [Compound 947, 2-((5-(3-(4-(3-Fluorophenyl)-1H-benzo[d]imidazol-2-yl)-1H-pyrazolo[3,4-c]pyridin-5-yl)pyridin-3-yl)oxy)-N,N-dimethylethan-1-amine] are 9990 nM and 463 nM.
The corresponding values for `COc1cncc(-c2cc3c(-c4nc5c(-c6cccc(F)c6)cccc5[nH]4)n[nH]c3cn2)c1` [Compound 948, 3-(4-(3-Fluorophenyl)-1H-benzo[d]imidazol-2-yl)-5-(5-methoxypyridin-3-yl)-1H-pyrazolo[3,4-c]pyridine] are 72 nM and 33 nM.
In assay [2], `Oc1cncc(-c2cc3c(-c4nc5c(-c6cccc(F)c6)cccc5[nH]4)n[nH]c3cn2)c1` [Compound 949, 5-(3-(4-(3-Fluorophenyl)-1H-benzo[d]imidazol-2-yl)-1H-pyrazolo[3,4-c]pyridin-5-yl)pyridin-3-ol] came in with a concentration for a half-maximal effect (EC50) of 9990 nM. In assay [3], this molecule had an IC50 of 29 nM.
`Fc1cccc(-c2cccc3[nH]c(-c4n[nH]c5cnc(-c6ccncc6)cc45)nc23)c1` [Compound 952, 3-(4-(3-Fluorophenyl)-1H-benzo[d]imidazol-2-yl)-5-(pyridin-4-yl)-1H-pyrazolo[3,4-c]pyridine] yielded a 50% effective concentration (EC50) in assay [2] of 9990 nM. 53 nM corresponded to half-maximal inhibition in assay [3] (IC50).
Consider `Fc1cccc(-c2cccc3[nH]c(-c4n[nH]c5cnc(-c6ccccn6)cc45)nc23)c1` [Compound 953, 3-(4-(3-Fluorophenyl)-1H-benzo[d]imidazol-2-yl)-5-(pyridin-2-yl)-1H-pyrazolo[3,4-c]pyridine], for which the response in assay [2] was half-maximal at 9 nM (EC50). In assay [3], this molecule had an IC50 of 250 nM.
The corresponding values for `Fc1cccc(-c2cccc3[nH]c(-c4n[nH]c5cnc(-c6cnccn6)cc45)nc23)c1` [Compound 954, 3-(4-(3-Fluorophenyl)-1H-benzo[d]imidazol-2-yl)-5-(pyrazin-2-yl)-1H-pyrazolo[3,4-c]pyridine] are 253 nM and 45 nM.
With `CC(C)CC(=O)Nc1cncc(-c2cc3c(-c4nc5c(-c6cc(O)cc(F)c6)cccc5[nH]4)n[nH]c3cn2)c1` [Compound 1350, N-(5-(3-(4-(3-Fluoro-5-hydroxyphenyl)-1H-benzo[d]imidazol-2-yl)-1H-pyrazolo[3,4-c]pyridin-5-yl)pyridin-3-yl)-3-methylbutanamide], the EC50 in assay [2] is 9 nM. Also, the IC50 in assay [3] is above 10000 nM.
On to `COc1cc(F)cc(-c2cccc3[nH]c(-c4n[nH]c5cnc(-c6cncc(NC(=O)CC(C)C)c6)cc45)nc23)c1` [Compound 1394, N-(5-(3-(4-(3-Fluoro-5-methoxyphenyl)-1H-benzo[d]imidazol-2-yl)-1H-pyrazolo[3,4-c]pyridin-5-yl)pyridin-3-yl)-3-methylbutanamide], for which the EC50 in assay [2] stood at 21 nM. Also, in assay [3], the concentration for half-maximal inhibition (IC50) stood at 183 nM.
